The text below walks through data of patent US8450525B2, “Histone deacetylase inhibitors” (Orchid Chemicals & Pharmaceuticals Limited, priority 2007, dated 2013).

Where only a bound is given, the exact number is not on record here.

For one assay, the system named is HCT 116 (colon) cells. Put plainly: Anti-cancer screen, growth inhibition (MTT). The assay is classed as cell-based. The conditions noted are these: Homo sapiens, HCT-116 cells, 48 hours of incubation. A digest of the protocol: (§1)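 MTT added for 3 h at 37° C, formazan dissolved in DMSO and A570 read. A T0 plate was measured at compound addition.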
The next assay relates to NCI-H460 (lung) cells. The experiment in a line: Anti-cancer screen, growth inhibition (MTT). It is filed as cell-based. The conditions noted are these: Homo sapiens, 48 hours of incubation. A digest of the protocol:
as §1

The subject of the next assay is U251 (glioma) cells. The experiment in a line: Anti-cancer screen, growth inhibition (MTT). The assay is classed as cell-based. The conditions noted are these: Homo sapiens, U-251 cells, 48 hours of incubation. A digest of the protocol: as §1
The subject of assay [1] is T1, HDAC (Mouse Liver Extract).
T1 construct: Mouse liver enzyme (10 mg/ml) was diluted 1:6 with HDAC buffer
Put plainly: HDAC inhibition assay using Boc-Lys(Ac)-AMC substrate, mouse liver enzyme. The assay is classed as biochemical.

Consider `O=C(/C=C/c1ccc(/C=C(/C(=O)N2CCOCC2)c2ccccc2F)cc1)NCc1ccc(C(=O)NO)cc1` [Example 98, 4-(((1E)-3-(4-(3-(Morpholino)-2-(2-fluorophenyl)-3-oxoprop-1-en-1-yl)phenyl)acrylamido)methyl)-N-hydroxybenzamide], for which the GI50 (commonly the concentration at which growth is held to half of that of the control) with HCT 116 (colon) cells is 9 µM; in the assay with NCI-H460 (lung) cells it was > 100 µM; in the assay with U251 (glioma) cells, 18 µM. Also, in assay [1], the “HDAC Inhibition % (1 μM)” value is reported as 91.5%. In addition, the “HDAC Inhibition % (10 μM)” value in assay [1] came to 98.8%.
Regarding `Cc1ccc(/C(=C\c2ccc(C(=O)NO)cc2)C(=O)NC2CC2)cc1` [Example 99, 4-(3-(Cyclopropylamino)-2-(4-methylphenyl)-3-oxoprop-1-en-1-yl)-N-hydroxy benzamide], the GI50 with HCT 116 (colon) cells was found to be 32 µM; in the assay with NCI-H460 (lung) cells, 66 µM; in the assay on U251 (glioma) cells, 12 µM. Besides, the “HDAC Inhibition % (1 μM)” value in assay [1] stood at 40.2%. The “HDAC Inhibition % (10 μM)” value in assay [1] was 59.0%.
Regarding `O=C(NC1CC1)/C(=C/c1ccc(C(=O)NO)cc1)c1ccccc1` [Example 102, 4-(3-(Cyclopropylamino)-2-phenyl-3-oxoprop-1-en-1-yl)-N-hydroxybenzamide], the figures for the GI50 in the assay with HCT 116 (colon) cells, in the assay with NCI-H460 (lung) cells and in the assay with U251 (glioma) cells were 17 µM, 48 µM and 19 µM, respectively. In addition, the “HDAC Inhibition % (1 μM)” value in assay [1] is given as 50.1%. In assay [1], the “HDAC Inhibition % (10 μM)” value turned out to be 80.4%.
Regarding `Cc1ccc(/C(=C\c2ccc(C(=O)Nc3ccccc3N)cc2)C(=O)NC2CC2)cc1` [Example 104, N-(2-Aminophenyl)-4-(3-(cyclopropylamino)-2-(4-methylphenyl)-3-oxoprop-1-en-1-yl)benzamide], the concentration for 50% growth inhibition (GI50) with HCT 116 (colon) cells stood at 6 µM; with NCI-H460 (lung) cells, 5 µM; in the assay on U251 (glioma) cells it was 7 µM. Also, the “HDAC Inhibition % (1 μM)” value in assay [1] turned out to be 44.7%. For the same compound, in assay [1], the “HDAC Inhibition % (10 μM)” value turned out to be 58.4%.
Regarding `Nc1ccccc1NC(=O)c1ccc(C=C(C(=O)NC2CC2)c2ccc(C(F)(F)F)cc2)cc1` [Example 106, N-(2-Aminophenyl)-4-(3-(cyclopropylamino)-2-(4-trifluoromethylphenyl)-3-oxoprop-1-en-1-yl)benzamide], the GI50 in the assay with HCT 116 (colon) cells was 4 µM; in the assay on NCI-H460 (lung) cells, 20 µM; with U251 (glioma) cells, 15 µM. For the same compound, the “HDAC Inhibition % (1 μM)” value in assay [1] was 35.8%. In assay [1], the “HDAC Inhibition % (10 μM)” value turned out to be 42.9%.
The corresponding values for `COc1cccc(/C(=C\c2ccc(C(=O)Nc3ccccc3N)cc2)C(=O)NC2CC2)c1` [Example 108, N-(2-Aminophenyl)-4-(3-(cyclopropylamino)-2-(3-methoxyphenyl)-3-oxoprop-1-en-1-yl)benzamide] are > 100 µM, 80 µM, 82 µM, 39.1% and 61.7%.
Consider `Nc1ccccc1NC(=O)c1ccc(/C=C(/C(=O)NC2CC2)c2ccccc2F)cc1` [Example 109, N-(2-Aminophenyl)-4-(3-(cyclopropylamino)-2-(2-fluorophenyl)-3-oxoprop-1-en-1-yl)benzamide], for which the GI50 was determined as 4.1 µM in the assay with HCT 116 (colon) cells, 6.5 µM in the assay with NCI-H460 (lung) cells and 21 µM with U251 (glioma) cells. Further, in assay [1], the “HDAC Inhibition % (1 μM)” value worked out at 35.8%. Besides, the “HDAC Inhibition % (10 μM)” value in assay [1] came out at 66.8%.
On to `Nc1ccccc1NC(=O)c1ccc(/C=C(/C(=O)NC2CC2)c2cccs2)cc1` [Example 113, N-(2-Aminophenyl)-4-(3-(cyclopropylamino)-2-(thiophen-2-yl)-3-oxoprop-1-en-1-yl)benzamide], for which the GI50 in the assay on HCT 116 (colon) cells worked out at 11 µM; in the assay with NCI-H460 (lung) cells, 25 µM; in the assay on U251 (glioma) cells it was 20 µM. In assay [1], the “HDAC Inhibition % (1 μM)” value came to 34.6%. Further, in assay [1], the “HDAC Inhibition % (10 μM)” value is on record as 51.8%.
As for `Nc1ccccc1NC(=O)c1ccc(/C=C(/C(=O)NC2CC2)c2ccc(F)cc2Cl)cc1` [Example 117, N-(2-Aminophenyl)-4-(3-(cyclopropylamino)-2-(2-chloro-4-fluorophenyl)-3-oxoprop-1-en-1-yl)benzamide], the GI50 came out at 68 µM in the assay with HCT 116 (colon) cells, 10 µM in the assay on NCI-H460 (lung) cells and 3.8 µM in the assay with U251 (glioma) cells. The “HDAC Inhibition % (1 μM)” value in assay [1] was 36.2%. Moreover, the “HDAC Inhibition % (10 μM)” value in assay [1] was found to be 66.6%.
As to `COc1ccc(/C(=C\c2ccc(C(=O)Nc3ccccc3N)cc2)C(=O)Nc2ccccc2)cc1OC` [Example 118, N-(2-Aminophenyl)-4-(3-(phenylamino)-2-(3,4-dimethoxyphenyl)-3-oxoprop-1-en-1-yl)benzamide], the GI50 in the assay with HCT 116 (colon) cells turned out to be 10 µM; in the assay on NCI-H460 (lung) cells, 90 µM; with U251 (glioma) cells, 4.2 µM. In addition, in assay [1], the “HDAC Inhibition % (1 μM)” value stood at 21.0%. For the same compound, the “HDAC Inhibition % (10 μM)” value in assay [1] is given as 46.0%.
In the case of `COc1ccc(/C(=C\c2ccc(C(=O)Nc3ccccc3N)cc2)C(=O)NC2CC2)cc1OC` [Example 119, N-(2-Aminophenyl)-4-(3-(cyclopropylamino)-2-(3,4-dimethoxyphenyl)-3-oxoprop-1-en-1-yl)benzamide], the GI50 was 32 µM with HCT 116 (colon) cells, 28 µM in the assay on NCI-H460 (lung) cells and 18 µM in the assay with U251 (glioma) cells. The “HDAC Inhibition % (1 μM)” value in assay [1] was 28.9%. In addition, in assay [1], the “HDAC Inhibition % (10 μM)” value was found to be 33.9%.
Take `COc1ccc(/C(=C\c2ccc(C(=O)Nc3ccccc3N)cc2)C(=O)NC2CC2)c(OC)c1` [Example 120, N-(2-Aminophenyl)-4-(3-(cyclopropylamino)-2-(2,4-dimethoxyphenyl)-3-oxoprop-1-en-1-yl)benzamide]: the GI50 turned out to be 10.5 µM in the assay with HCT 116 (colon) cells, 21 µM in the assay with NCI-H460 (lung) cells and 10 µM in the assay on U251 (glioma) cells. In addition, in assay [1], the “HDAC Inhibition % (1 μM)” value is given as 36.9%. Further, in assay [1], the “HDAC Inhibition % (10 μM)” value was found to be 59.3%.
The corresponding values for `Nc1ccccc1NC(=O)c1ccc(/C=C(/C(=O)NC2CC2)c2ccc3ccccc3c2)cc1` [Example 121, N-(2-Aminophenyl)-4-(3-(cyclopropylamino)-2-(2-naphthyl)-3-oxoprop-1-en-1-yl)benzamide] are 1.7 µM, 3.1 µM, 9 µM, 35.0% and 63.5%.
With `COc1ccc(/C(=C\c2ccc(C(=O)Nc3ccccc3N)cc2)C(=O)Nc2ccccc2)c(OC)c1` [Example 122, N-(2-Aminophenyl)-4-(3-phenylamino-2-(2,4-dimethoxyphenyl)-3-oxoprop-1-en-1-yl)benzamide], the GI50 with HCT 116 (colon) cells came to 2.6 µM; in the assay on NCI-H460 (lung) cells, 11 µM; in the assay on U251 (glioma) cells it was 50 µM. The “HDAC Inhibition % (1 μM)” value in assay [1] is on record as 28.9%. The “HDAC Inhibition % (10 μM)” value in assay [1] is 54.1%.
The corresponding values for `Nc1ccccc1NC(=O)c1ccc(/C=C(/C(=O)NC2CC2)c2c[nH]c3ccccc23)cc1` [Example 124, N-(2-Aminophenyl)-4-(3-(cyclopropylamino)-3-oxo-2-(1H-indol-3-yl)prop-1-en-1-yl)benzamide] are 2 µM, 4.5 µM, 2.6 µM, 34.7% and 63.2%.
The corresponding values for `Nc1ccccc1NC(=O)c1ccc(/C=C(/C(=O)NC2CC2)c2ccc(-c3ccccc3)cc2)cc1` [Example 125, N-(2-Aminophenyl)-4-(3-(cyclopropylamino)-3-oxo-2-biphenyl-4-yl-prop-1-en-1-yl)benzamide] are 3.6 µM, 35 µM, 20 µM, 31.5% and 45.4%.
The corresponding values for `O=C(NC1CC1)C(=Cc1ccc(C(=O)Nc2ccccc2O)cc1)c1ccc(F)cc1` [Example 126, 4-(2-(4-Fluorophenyl)-3-(cyclopropylamino)-3-oxoprop-1-en-1-yl)-N-(2-hydroxyphenyl)benzamide] are 14 µM, 40 µM, 22 µM, 36.9% and 53.9%.
Regarding `Nc1ccccc1NC(=O)c1ccc(/C=C(/C(=O)NC2CC2)c2cccnc2)cc1` [Example 127, N-(2-Aminophenyl)-4-[3-(cyclopropylamino)-3-oxo-2-pyridin-3-yl-prop-1-en-1-yl]benzamide], the GI50 with HCT 116 (colon) cells turned out to be 22 µM; with NCI-H460 (lung) cells, 12 µM; with U251 (glioma) cells, 40 µM. In addition, in assay [1], the “HDAC Inhibition % (1 μM)” value worked out at 36.9%. Further, in assay [1], the “HDAC Inhibition % (10 μM)” value is 55.4%.
For `Nc1ccccc1NC(=O)c1ccc(/C=C(/C(=O)NC2CC2)c2ccc(O)cc2)cc1` [Example 128, N-(2-Aminophenyl)-4-(2-(4-hydroxyphenyl)-3-(cyclopropylamino)-3-oxoprop-1-en-1-yl)benzamide], the GI50 with HCT 116 (colon) cells came to 24 µM; in the assay with NCI-H460 (lung) cells it was 26 µM; with U251 (glioma) cells it was 28 µM. For the same compound, in assay [1], the “HDAC Inhibition % (1 μM)” value is recorded as 31.8%. Besides, the “HDAC Inhibition % (10 μM)” value in assay [1] is 55.1%.
For `Nc1ccccc1NC(=O)c1ccc(/C=C(/C(=O)NC2CC2)c2c(F)cccc2F)cc1` [Example 129, N-(2-Aminophenyl)-4-(2-(2,6-difluorophenyl)-3-(cyclopropylamino)-3-oxoprop-1-en-1-yl)benzamide], the GI50 amounted to 3.5 µM in the assay on HCT 116 (colon) cells, 12 µM with NCI-H460 (lung) cells and 22 µM with U251 (glioma) cells. The “HDAC Inhibition % (1 μM)” value in assay [1] is 30.0%. Further, the “HDAC Inhibition % (10 μM)” value in assay [1] was determined as 54.6%.
As for `Nc1ccccc1NC(=O)c1ccc(/C=C(/C(=O)NC2CC2)c2cc(F)ccc2F)cc1` [Example 130, N-(2-Aminophenyl)-4-(2-(2,5-difluorophenyl)-3-(cyclopropylamino)-3-oxoprop-1-en-1-yl)benzamide], the values for the GI50 with HCT 116 (colon) cells, in the assay on NCI-H460 (lung) cells and in the assay with U251 (glioma) cells were 5.8 µM, 9 µM and 16 µM, respectively. The “HDAC Inhibition % (1 μM)” value in assay [1] worked out at 34.7%. In addition, in assay [1], the “HDAC Inhibition % (10 μM)” value is listed as 56.0%.
